In patent publication US12377110B2, “Fospropofol methods and compositions” (Epalex Corporation, priority 2019, dated 2025):

Assay: Study A16 Part 1: PK of single ascending oral doses of fospropofol disodium (200 to 2000 mg), fasted healthy adults
Assay type: in vivo, human
Conditions: single dose of 800 mg (four 200 mg capsules)
Method: Part 1 of Study A16 was a double-blind, randomized, placebo-controlled study to investigate the safety-tolerability and PK of oral administration of single ascending doses of fospropofol disodium to healthy adult male and female volunteers.
Subjects were healthy adults (age 18-55 years inclusive, BMI 18-29.9 kg/m^2). Separate cohorts of 12 subjects each were randomized to receive fospropofol disodium at doses of 200, 400, 800, 1000, 1200, 1600, or 2000 mg (n=10 per cohort) or matching placebo (n=2 per cohort).
Subjects were admitted to the clinical unit for an overnight fast (Day −1), administered study drug on Day 1, and remained in the clinical unit until Day 2.
Fospropofol disodium was formulated as powder in an HPMC capsule, each capsule containing 200 mg of fospropofol disodium (weight adjusted for water content). Placebo was administered as an appropriate number of matching capsules.
Based on PK results from the early cohorts, sampling times were optimized beginning with Cohort 3 (800 mg) to preclose, 5, 10, 15, 20, 25, 30, 37, and 45, minutes and 1, 2, 4, 6, and 9 hours after closing.

## CC(C)c1cccc(C(C)C)c1OCOP(=O)([O-])O.[Na+] [fospropofol disodium]
  Tolerability of propofol exposures: well-tolerated
